Active and inactive are the calls of the source. The rule behind the calls is not given here.
Key:
[1] = system: MCF7; assay: Growth inhibition of human MCF7 cells at 10 uM after 48 hrs; format: functional
[2] = system: SNB-75; assay: Growth inhibition of human SNB75 cells at 10 uM after 48 hrs; format: functional
[3] = system: HL-60(TB); assay: Growth inhibition of human HL-60(TB) cells at 10 uM after 48 hrs; format: functional
[4] = system: CAKI-1; assay: Growth inhibition of human CAKI-1 cells at 10 uM after 48 hrs; format: functional
[5] = system: MDA-MB-468; assay: Growth inhibition of human MDA-MB-468 cells at 10 uM after 48 hrs; format: functional
[6] = system: SF-268; assay: Growth inhibition of human SF268 cells at 10 uM after 48 hrs; format: functional
[7] = system: LOX IMVI; assay: Growth inhibition of human LOXIMVI cells at 10 uM after 48 hrs; format: functional
[8] = system: PC-3; assay: Growth inhibition of human PC3 cells at 10 uM after 48 hrs; format: functional
[9] = system: Pseudomonas aeruginosa; assay: Antimicrobial activity against Pseudomonas aeruginosa assessed as inhibition zone at 200 ug/disk after 24 hrs by disc-diffusion method; format: functional; conditions: read-out: IZ
[10] = system: HOP-92; assay: Growth inhibition of human HOP92 cells at 10 uM after 48 hrs; format: functional
[11] = system: NCI-H23; assay: Growth inhibition of human NCI-H23 cells at 10 uM after 48 hrs; format: functional
[12] = system: BT-549; assay: Growth inhibition of human BT549 cells at 10 uM after 48 hrs; format: functional
[13] = system: HT-29; assay: Growth inhibition of human HT-29 cells at 10 uM after 48 hrs; format: functional
[14] = system: CCRF-CEM; assay: Growth inhibition of human CCRF-CEM cells at 10 uM after 48 hrs; format: functional
[15] = system: HCT-15; assay: Growth inhibition of human HCT15 cells at 10 uM after 48 hrs; format: functional
[16] = system: SW-620; assay: Growth inhibition of human SW620 cells at 10 uM after 48 hrs; format: functional
[17] = system: OVCAR-3; assay: Growth inhibition of human OVCAR3 cells at 10 uM after 48 hrs; format: functional
[18] = system: UACC-257; assay: Growth inhibition of human UACC257 cells at 10 uM after 48 hrs; format: functional
[19] = system: NCI-H226; assay: Growth inhibition of human NCI-H226 cells at 10 uM after 48 hrs; format: functional
[20] = system: KM12; assay: Growth inhibition of human KM12 cells at 10 uM after 48 hrs; format: functional
[21] = system: COLO 205; assay: Growth inhibition of human COLO205 cells at 10 uM after 48 hrs; format: functional
[22] = system: 786-0; assay: Growth inhibition of human 786-0 cells at 10 uM after 48 hrs; format: functional
[23] = system: U-251; assay: Growth inhibition of human U251 cells at 10 uM after 48 hrs; format: functional
[24] = system: Escherichia coli; assay: Antimicrobial activity against Escherichia coli assessed as inhibition zone at 200 ug/disk after 24 hrs by disc-diffusion method; format: functional; conditions: read-out: IZ
[25] = system: HCC 2998; assay: Growth inhibition of human HCC2998 cells at 10 uM after 48 hrs; format: functional
[26] = system: SF-539; assay: Growth inhibition of human SF539 cells at 10 uM after 48 hrs; format: functional
[27] = system: SK-MEL-5; assay: Growth inhibition of human SK-MEL-5 cells at 10 uM after 48 hrs; format: functional
[28] = system: MOLT-4; assay: Growth inhibition of human MOLT4 cells at 10 uM after 48 hrs; format: functional
[29] = system: OVCAR-5; assay: Growth inhibition of human OVCAR5 cells at 10 uM after 48 hrs; format: functional
[30] = system: OVCAR-4; assay: Growth inhibition of human OVCAR4 cells at 10 uM after 48 hrs; format: functional
[31] = system: MDA-MB-435; assay: Growth inhibition of human MDA-MB-435 cells at 10 uM after 48 hrs; format: functional
[32] = system: T47D; assay: Growth inhibition of human T47D cells at 10 uM after 48 hrs; format: functional
[33] = system: MDA-MB-231; assay: Growth inhibition of human MDA-MB-231 cells at 10 uM after 48 hrs; format: functional
[34] = system: SF-295; assay: Growth inhibition of human SF295 cells at 10 uM after 48 hrs; format: functional
[35] = system: NCI-H460; assay: Growth inhibition of human NCI-H460 cells at 10 uM after 48 hrs; format: functional
[36] = system: SR; assay: Growth inhibition of human SR cells at 10 uM after 48 hrs; format: functional
[37] = system: SN12C; assay: Growth inhibition of human SN12C cells at 10 uM after 48 hrs; format: functional
[38] = system: TK-10; assay: Growth inhibition of human TK10 cells at 10 uM after 48 hrs; format: functional
[39] = system: A549; assay: Growth inhibition of human A549 cells at 10 uM after 48 hrs; format: functional
[40] = system: OVCAR-8; assay: Growth inhibition of human OVCAR8 cells at 10 uM after 48 hrs; format: functional
[41] = system: SNB-19; assay: Growth inhibition of human SNB19 cells at 10 uM after 48 hrs; format: functional
[42] = system: UO-31; assay: Growth inhibition of human UO31 cells at 10 uM after 48 hrs; format: functional
[43] = system: ACHN; assay: Growth inhibition of human ACHN cells at 10 uM after 48 hrs; format: functional
[44] = system: Staphylococcus aureus; assay: Antimicrobial activity against Staphylococcus aureus assessed as inhibition zone at 200 ug/disk after 24 hrs by disc-diffusion method; format: functional; conditions: read-out: IZ
[45] = system: RPMI-8226; assay: Growth inhibition of human RPMI8226 cells at 10 uM after 48 hrs; format: functional
[46] = system: Bacillus subtilis; assay: Antimicrobial activity against Bacillus subtilis assessed as inhibition zone at 200 ug/disk after 24 hrs by disc-diffusion method; format: functional; conditions: read-out: IZ
[47] = system: K562; assay: Growth inhibition of human K562 cells at 10 uM after 48 hrs; format: functional
[48] = system: NCI-H522; assay: Growth inhibition of human NCI-H522 cells at 10 uM after 48 hrs; format: functional
[49] = system: UACC-62; assay: Growth inhibition of human UACC62 cells at 10 uM after 48 hrs; format: functional
[50] = target: T1, Dihydrofolate reductase (Bos taurus, UniProt P00376); assay: Inhibition of bovine liver DHFR
T1 sequence (P00376 whole entry): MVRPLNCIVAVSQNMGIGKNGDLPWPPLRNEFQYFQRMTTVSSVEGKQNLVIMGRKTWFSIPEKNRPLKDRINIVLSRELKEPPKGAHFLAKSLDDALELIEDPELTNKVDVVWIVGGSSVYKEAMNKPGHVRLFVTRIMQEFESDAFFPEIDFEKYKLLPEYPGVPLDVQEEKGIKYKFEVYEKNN

[51] = system: Malme-3M; assay: Growth inhibition of human MALME-3M cells at 10 uM after 48 hrs; format: functional
[52] = system: Hs-578T; assay: Growth inhibition of human Hs 578T cells at 10 uM after 48 hrs; format: functional
[53] = system: NCI/ADR-RES; assay: Growth inhibition of human NCI-ADR-RES cells at 10 uM after 48 hrs; format: functional
[54] = system: A498; assay: Growth inhibition of human A498 cells at 10 uM after 48 hrs; format: functional
[55] = system: RXF 393; assay: Growth inhibition of human RXF393 cells at 10 uM after 48 hrs; format: functional
[56] = system: Candida albicans; assay: Antimicrobial activity against Candida albicans assessed as inhibition zone at 200 ug/disk after 24 hrs by disc-diffusion method; format: functional; conditions: read-out: IZ
[57] = system: HCT-116; assay: Growth inhibition of human HCT116 cells at 10 uM after 48 hrs; format: functional
[58] = system: M14; assay: Growth inhibition of human M14 cells at 10 uM after 48 hrs; format: functional

Cc1ccc2nc(Sc3sc(N)nc3C)n(-c3ccccc3)c(=O)c2c1
growth inhibition (GI) [1]: inactive | growth inhibition (GI) [2]: inactive | growth inhibition (GI) [3]: inactive | growth inhibition (GI) [4]: inactive | growth inhibition (GI) [5]: inactive | growth inhibition (GI) [6]: inactive | growth inhibition (GI) [7]: inactive | growth inhibition (GI) [8]: inactive | zone of inhibition at 200 µg/disc [9]: 8 mm | growth inhibition (GI) [10]: inactive | growth inhibition (GI) [11]: inactive | growth inhibition (GI) [12]: inactive | growth inhibition (GI) [13]: inactive | growth inhibition (GI) [14]: inactive | growth inhibition (GI) [15]: inactive | growth inhibition (GI) [16]: inactive | growth inhibition (GI) [17]: inactive | growth inhibition (GI) [18]: inactive | growth inhibition (GI) [19]: inactive | growth inhibition (GI) [20]: inactive | growth inhibition (GI) [21]: inactive | growth inhibition (GI) [22]: inactive | growth inhibition (GI) [23]: inactive | zone of inhibition at 200 µg/disc [24]: 8 mm | growth inhibition (GI) [25]: inactive | growth inhibition (GI) [26]: inactive | growth inhibition (GI) [27]: inactive | growth inhibition (GI) [28]: inactive | growth inhibition (GI) [29]: inactive | growth inhibition (GI) [30]: inactive | growth inhibition (GI) [31]: inactive | growth inhibition (GI) [32]: inactive | growth inhibition (GI) [33]: inactive | growth inhibition (GI) [34]: inactive | growth inhibition (GI) [35]: inactive | growth inhibition (GI) [36]: inactive | growth inhibition (GI) [37]: inactive | growth inhibition (GI) [38]: inactive | growth inhibition (GI) [39]: inactive | growth inhibition (GI) [40]: inactive | growth inhibition (GI) [41]: inactive | growth inhibition (GI) [42]: inactive | growth inhibition (GI) [43]: inactive | zone of inhibition at 200 µg/disc [44]: 8 mm | growth inhibition (GI) [45]: inactive | zone of inhibition at 200 µg/disc [46]: 8 mm | growth inhibition (GI) [47]: inactive | growth inhibition (GI) [48]: inactive | growth inhibition (GI) [49]: inactive | IC50 [50]: 5 µM | growth inhibition (GI) [51]: inactive | growth inhibition (GI) [52]: inactive | growth inhibition (GI) [53]: inactive | growth inhibition (GI) [54]: inactive | growth inhibition (GI) [55]: inactive | zone of inhibition at 200 µg/disc [56]: 8 mm | growth inhibition (GI) [57]: inactive | growth inhibition (GI) [58]: inactive

Cc1ccc(-n2c(Sc3sc(N)nc3C)nc3ccc(C)cc3c2=O)cc1
growth inhibition (GI) [1]: inactive | growth inhibition (GI) [2]: inactive | growth inhibition (GI) [3]: inactive | growth inhibition (GI) [4]: inactive | growth inhibition (GI) [5]: inactive | growth inhibition (GI) [6]: inactive | growth inhibition (GI) [7]: inactive | growth inhibition (GI) [8]: inactive | zone of inhibition at 200 µg/disc [9]: 8 mm | growth inhibition (GI) [10]: inactive | growth inhibition (GI) [11]: inactive | growth inhibition (GI) [12]: inactive | growth inhibition (GI) [13]: inactive | growth inhibition (GI) [14]: inactive | growth inhibition (GI) [15]: inactive | growth inhibition (GI) [16]: inactive | growth inhibition (GI) [17]: inactive | growth inhibition (GI) [18]: inactive | growth inhibition (GI) [19]: inactive | growth inhibition (GI) [20]: inactive | growth inhibition (GI) [21]: inactive | growth inhibition (GI) [22]: inactive | growth inhibition (GI) [23]: inactive | zone of inhibition at 200 µg/disc [24]: 8 mm | growth inhibition (GI) [25]: inactive | growth inhibition (GI) [26]: inactive | growth inhibition (GI) [27]: inactive | growth inhibition (GI) [28]: inactive | growth inhibition (GI) [29]: inactive | growth inhibition (GI) [30]: inactive | growth inhibition (GI) [31]: inactive | growth inhibition (GI) [32]: inactive | growth inhibition (GI) [33]: inactive | growth inhibition (GI) [34]: inactive | growth inhibition (GI) [35]: inactive | growth inhibition (GI) [36]: inactive | growth inhibition (GI) [37]: inactive | growth inhibition (GI) [38]: inactive | growth inhibition (GI) [39]: inactive | growth inhibition (GI) [40]: inactive | growth inhibition (GI) [41]: inactive | growth inhibition (GI) [42]: inactive | growth inhibition (GI) [43]: inactive | zone of inhibition at 200 µg/disc [44]: 8 mm | growth inhibition (GI) [45]: inactive | zone of inhibition at 200 µg/disc [46]: 8 mm | growth inhibition (GI) [47]: inactive | growth inhibition (GI) [48]: inactive | growth inhibition (GI) [49]: inactive | IC50 [50]: 7 µM | growth inhibition (GI) [51]: inactive | growth inhibition (GI) [52]: inactive | growth inhibition (GI) [53]: inactive | growth inhibition (GI) [54]: inactive | growth inhibition (GI) [55]: inactive | zone of inhibition at 200 µg/disc [56]: 8 mm | growth inhibition (GI) [57]: inactive | growth inhibition (GI) [58]: inactive
